Source: ChEMBL document CHEMBL2074395, “NF-kappaB-mediated induction of mdr1b expression by insulin in rat hepatoma cells” (J Biol Chem, 1997)

Biological target: ATP-dependent translocase ABCB1 (Rattus norvegicus, UniProt P43245)
Assay: TP_TRANSPORTER: RNase protection assay in H-4-II-E cells
Format: functional, cell-based

Sequence of ATP-dependent translocase ABCB1 (P43245 whole entry): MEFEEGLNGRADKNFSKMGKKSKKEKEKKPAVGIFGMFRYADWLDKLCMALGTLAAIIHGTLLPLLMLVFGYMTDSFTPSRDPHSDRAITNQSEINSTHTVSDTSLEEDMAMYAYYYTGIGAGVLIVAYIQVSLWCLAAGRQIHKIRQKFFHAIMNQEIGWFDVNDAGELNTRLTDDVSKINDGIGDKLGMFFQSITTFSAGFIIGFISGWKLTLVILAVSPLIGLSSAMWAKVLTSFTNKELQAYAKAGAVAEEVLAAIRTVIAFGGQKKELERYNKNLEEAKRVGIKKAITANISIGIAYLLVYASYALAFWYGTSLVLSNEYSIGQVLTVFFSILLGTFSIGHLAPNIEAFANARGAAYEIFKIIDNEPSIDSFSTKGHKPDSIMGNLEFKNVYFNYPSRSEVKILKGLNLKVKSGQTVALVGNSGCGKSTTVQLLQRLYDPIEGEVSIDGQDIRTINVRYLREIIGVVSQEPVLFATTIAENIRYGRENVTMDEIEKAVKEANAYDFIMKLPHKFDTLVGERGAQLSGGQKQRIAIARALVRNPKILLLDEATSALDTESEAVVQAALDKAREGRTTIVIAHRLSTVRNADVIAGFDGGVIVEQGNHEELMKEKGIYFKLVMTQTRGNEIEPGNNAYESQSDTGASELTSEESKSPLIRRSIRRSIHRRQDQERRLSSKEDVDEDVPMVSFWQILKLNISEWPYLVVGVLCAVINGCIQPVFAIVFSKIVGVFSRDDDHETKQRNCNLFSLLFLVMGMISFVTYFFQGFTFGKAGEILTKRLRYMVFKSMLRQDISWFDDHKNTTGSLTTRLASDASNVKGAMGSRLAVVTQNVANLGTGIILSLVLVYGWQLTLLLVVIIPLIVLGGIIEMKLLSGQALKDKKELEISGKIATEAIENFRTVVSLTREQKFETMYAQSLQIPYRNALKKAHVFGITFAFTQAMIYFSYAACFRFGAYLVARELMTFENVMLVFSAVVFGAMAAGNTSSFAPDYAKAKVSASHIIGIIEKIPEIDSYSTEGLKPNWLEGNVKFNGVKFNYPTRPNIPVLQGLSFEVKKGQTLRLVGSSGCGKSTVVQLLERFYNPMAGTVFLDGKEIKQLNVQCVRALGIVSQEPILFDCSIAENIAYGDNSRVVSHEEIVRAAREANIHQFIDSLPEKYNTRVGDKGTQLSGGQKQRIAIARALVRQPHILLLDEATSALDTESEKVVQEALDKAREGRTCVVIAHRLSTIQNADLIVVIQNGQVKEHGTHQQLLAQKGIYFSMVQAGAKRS

INSULIN HUMAN
Activity: inducer [+]
